The record followed here is US12303556B2, “Peptides for treatment and prevention of diabetes and associated disorders” (UNIVERSITE DE STRASBOURG, priority 2018, dated 2025).

No end group written: not given here.

One assay relates to PKC. Briefly: PKC kinase activity in human adipocytes. It counts as cell-based. The conditions noted are these: for PKC kinase activity at 25 μg peptide per well: 25 μg per well, 30 minutes, positive control insulin. Here is the method:
FIG. 1. PKC kinase activity in human adipocytes induced by peptides from alpha PKC. Primary human adipocytes were cultured overnight without insulin and on the next day, the different conditions were used with for each peptide 25 μg of peptide ECTMVEKKVLALL (SEQ ID NO: 50) or 25 ug of peptide SVEWWAYGLLYEMLA (SEQ ID NO: 51) was added to each well and incubated for 30 minutes prior to measuring the PKC activity. Vehicle which is saline solution was the negative control and the positive control used was insulin at […].
FIG. 3. PATAS in vitro dose response to trigger PKC activity in the human adipocytes. PATAS in vitro dose response to trigger PKC activity in the human adipocytes after a 30 minutes incubation of human primary adipocyte with PATAS added to the culture medium. n=5 per group and PATAS quantities are expressed as μg per well.
Two other peptides from PKC alpha, namely ECTMVEKKVLALL (SEQ ID NO: 50) and SVEWWAYGLLYEMLA (SEQ ID NO: 51) have also been tested for their effect on PKC kinase activity.
For PKC kinase activity tests, we used ready to use mature primary human adipocytes originating from omental adipose tissue were purchased from Zenbio in either a 96-well or a 6-well plate format (Catalog #: OA-1096-3 or OA-1006-3). The PKC kinase activity Assay kit (Catalog #: 139437) and procedures were used according to manufacturer's protocol.

The subject of assay [1] is DIO glucose intolerant male mice. Briefly: Glucose tolerance test (ipGTT) in DIO glucose intolerant male mice. The conditions noted are these: single dose 25 micrograms per mouse, ipGTT at day 6, high fat/high glucose diet. Type of assay: in vivo. Here is the method:
(FIG. 5A) Glucose tolerance: Mice were injected with either vehicle (saline solution), or vehicle+PATAD 417 or vehicle+ADPIF (CPC peptide A-MRO) at day 0. 6 days later (D6) the mice were fasted for 4 hours and at 0 minute received a […] glucose injection to perform the ipGTT. Glucose levels were measured from tail blood every 30 minutes. Besides the control mice which were fed on chow diet (CTL Chow diet), all the other mice were fed on a high fat/high glucose diet.
Mice were injected with a single dose (25 micrograms per mouse) of either scramble peptide or PATAD or ADPIF/PATAS. These are results obtained from series of glucose tolerance test (ipGTT) in DIO glucose intolerant male mice (FIGS. 5A and B).
At day 0: all mice were fasted for 4 hours in the morning. At 1:00 p.m., control mice received one injection of (body weight in grams)×10 […] of 22% glucose solution ([…] injection). Treated mice were injected with either 25 ug (2.5 uL of mother solution) of tested peptide dissolved in (body weight in grams)×10 of the 22% glucose solution. Blood glucose levels were measured from tail vein blood at every 30 minutes intervals and plotted to determine the effect of the different treatments on the area under the curve.

A further assay deals with db/db male mice. Briefly: ipGTT in db/db (BKS) diabetic mice. It counts as in vivo. The conditions noted are these: 2 mg/kg BW subcutaneous, ipGTT day 4 post-injection, 6-week-old db/db mice on chow diet. As to the method: (FIG. 6A) Blood glucose excursion curve during ipGTT on day 4 post-PATAS subcutaneous injection (2 mg/kg BW PATAS dosing) in 6-week-old db/db male mice on chow diet Post 8 hours fasting. Glucose bolus (2 g/kg body weight) administered […] at T=Omin and the associated AUC histogram (n=10 mice per group Significance was set at *p-value≤0.05, **p-value≤0.01).
PATAS/ADPIF's activity was tested in db/db on the BKS genetic background, diabetic mouse models. […] The mice received a weekly injection of PATAS/ADPIF or vehicle for another 3 weeks followed by another 4 weeks without any treatment while being constantly monitored. […]
At day 0: all mice were fasted for 4 hours in the morning. […] Blood glucose levels were measured from tail vein blood at every 30 minutes intervals and plotted to determine the effect of the different treatments on the area under the curve.

The test system of a further assay is FATP2. Briefly: FATP isoform expression in subcutaneous white adipose tissue of db/db mice. It counts as in vivo. The conditions noted are these: 4 weekly PATAS injections then 4 weeks without treatment, n=6, GAPDH reference, vs control mice. As to the method: (FIG. 6B) Following 4 weekly PATAS injections, and another 4 weeks without treatment, db/db mice sWAT. Normalized expression levels for the six FATP isoforms (FATP 1-6) in subcutaneous white adipose tissue (sWAT) were determined. n=6 per group with GAPDH as reference gene.
PATAS/ADPIF's activity was tested in db/db on the BKS genetic background, diabetic mouse models. […] The mice received a weekly injection of PATAS/ADPIF or vehicle for another 3 weeks followed by another 4 weeks without any treatment while being constantly monitored.
Total RNA was prepared from the different tissues and cells using a RiboPure™ kit (Catalog #: AM1924; Ambion) followed by a DNAse treatment with the TURBO DNA-free™ (Catalog #: AM 1907; Ambion). RNA integrity was assessed by gel electrophoresis and RNA concentration by Eppendorf Biophotometer Plus with the Hellma® Tray Cell (Catalog #: 105.810-uvs; Hellma). Reverse transcription of 1 μg total RNA to cDNA was performed using the BioRadiScript™ cDNA synthesis kit (Catalog #: 170-8891; BioRad). Real-time quantitative polymerase chain reaction amplification was performed in a BioRad CFX96 TM Real-Time System using the iQ™ SYBR® Green Supermix (Catalog #: 170-8886; BioRAd) and primer sets optimized for tested targets for SYBR Green-based real-time PCR for the real-time PCR. […]

The subject of the next assay is Bbs10-/- mice. Briefly: ipGTT in Bbs10-/- mice (Bardet Biedl syndrome model). Type of assay: in vivo. The conditions noted are these: 2 mg/kg body weight subcutaneous, 3 days post-injection. The text has this:
FIGS. 7A-7B. PATAS is effective in improving glucose intolerance in a genetic mouse model for a rare disease associated with obesity and type 2 diabetes, the Bardet Biedl syndrome (BBS). BBS mice were on chow diet fed ad libitum. n=4 mice with a cross-over experimental set-up with ipGTT performed before injection and 3 days post-injection. Knockout mouse model for the BBS10 gene (Bbs10^−/−) were generated and spontaneously became obese as described in literature.
Knockout mouse model for the BBS10 gene (Bbs10^−/−) were generated and spontaneously became obese as described in literature.
For the obese mouse model with overt type 2 diabetes mouse, the BKS (D)-Leprdb/J, Stock No: 010803 (were purchased from the Jax Labs. Bbs10 knockout mice were generated by Institute Mouse Clinic (ICS) in Strasbourg and have been previously described in literature. All mice were on a C57/BL6 genetic background. All animals were housed in a temperature and humidity-controlled facility, with a 12 h-light/12 h-dark cycle. The BKS (D)-Leprdb/J mice were fed with chow diet (LM-485; Harlan Teklad Premier Laboratory Diets) whereas the Bbs knockout mice were fed with […] and tap water ad libitum. For ipGTT and ipITT, mice were fasted for 6 hours before start of experiment. Insulin 0.75 U/kg was injected i.v. via the tail vein. Blood glucose and samples were collected from the tail. […]

Assay [2] concerns primary human mature adipocytes. Briefly: Glucose uptake assay in human mature adipocytes (2-DG, Abcam kit). It counts as cell-based. The note with it: 30 minutes with 2-DG, without insulin, 2.5 μL of peptide at 10 μg/μL in 200 μL; N=8; compared with insulin. As to the method:
FIG. 4: Glucose uptake in human primary mature adipocyte. N=8 per group.
Human primary preadipocyte were cultured in a 96-well plate and differentiated in mature human adipocytes. After 3 weeks of culture post adipogenesis, the adipocytes were incubated in culture medium without insulin for 2 hours. Following these 2 hours of insulin fasting, the media were changed back wither either medium without insulin (−INS) or medium with insulin (+INS) or medium with ADPIF (PATAS) for 30 minutes together with 2-DG, a glucose analogue used to determine glucose uptake in the Abcam kit. Following the manufacturer's protocol, we then measured the glucose uptake in 8 wells per condition and calculated the mean that was then plotted in the histogram with the standard error of the mean for the error bars shown in […] FIG. 4.
Human white visceral preadipocytes (Catalog #: C-12732; PromoCell) were purchased. The preadipocytes were seeded according to manufacturer's protocol and cultured in the Preadipocyte growth medium (Catalog #: C-27410; PromoCell) to confluence. Adipogenic differentiation was induced by changing the medium to the Preadipocyte Differentiation Medium (Catalog #: C-27436; PromoCell) for 2 days. After the differentiation phase, the medium was finally changed to the Adipocyte Nutrition medium (Catalog #: C-27438; PromoCell). […]

For another assay, the system named is glycated albumin. Briefly: Glycated albumin in plasma in the STAM mice model (ELISA). Type of assay: in vivo. The conditions noted are these: 5 weekly subcutaneous injections of 25 ug per mouse, 6 mice per group, vs vehicle. The text has this: FIG. 8. Effect of ADPIF on glycated albumin in plasma in the STAM mice model. Plasma of the treated mice from the Japanese STAMT model were used to measure circulating glycated albumin levels using a commercially available kit. The results are presented in this figure as the mean value of 6 mice per group presented with the standard error of the mean for the error bars.
Glycated albumin is a well-recognized and robust parameter to determine episodes of hyperglycemia in vivo. We therefore used the plasma from the STAMT mice that were treated for 5 weeks with weekly ADPIF/PATAS's injections at 25 ug each compared to control groups which were injected with saline.
For the non-obese STAM mouse model study, C57BL/6 mice (14-day-pregnant female) were obtained from Japan SLC, Inc. (Japan). All animals used in the study were housed and cared for in accordance with the Japanese Pharmacological Society Guidelines for Animal Use. The animals were maintained in a SPF facility under controlled conditions of temperature (23±2° C.), humidity (45±10%), lighting (12-hour artificial light and dark cycles; light from 8:00 to 20:00) and air exchange. The animals were housed in TPX cages (CLEA Japan) with a maximum of 3 mice per cage. Sterilized Paper-Clean (Japan SLC) was used for bedding and replaced once a week. […]
(In general: An ELISA detects its analyte on a solid surface through an enzyme-linked reagent.)

For the substance “ECTMVEKKVLALL (hydrocarbon staple; segment of kinase domain of alphaPKC) [Peptide from PKC alpha with M and A carrying the stapling]”, the “PKC kinase activity at 25 μg peptide per well” value in the assay with PKC is recorded as “able to increase PKC kinase activity”.

In the case of “SVEWWAYGLLYEMLA (staple (positions not given here); not fully specified; also: hydrocarbon staple, positions not given here) [Peptide from PKC alpha with A and M carrying the stapling]”, in the assay with PKC, the “PKC kinase activity at 25 μg peptide per well” value was “able to increase PKC kinase activity”.

With “VE CTM-[2-(4-pentenyl) alanine]-EK RVL A-[2-(4-pentenyl) alanine]-L DKP PFL TQL HS [PATAD, reference compound]”, the “area under the curve (AUC) of glucose tolerance test” value in assay [1] is given as “drop in the AUC”.

As to “VECTTREKEVLASLDKAAFLTQLHS (staple (positions not given here); not fully specified (bridges); also: hydrocarbon staple via alkenyl Arg and Ser, positions not given here) [ADPIF/PATAS, Stapled peptide wherein R and S carry the stapling, being preferably 2-(7-octenyl)arginine and 2-(4-pentenyl)serine]”, the “glucose intolerance / hyperglycemia (ipGTT)” value in the assay with db/db male mice is recorded as “able to prevent hyperglycemia”; with db/db male mice (listed as PATAS/ADPIF), “significant improvement of the glucose intolerance”. Further, the “Fatp2 expression levels in adipose tissue (sWAT)” value is “able to decrease the expression of FATP2” in the assay with FATP2; “specific and significant drop in Fatp2 expression levels” in the assay with FATP2 (listed as PATAS). Also, in assay [1], the “area under the curve (AUC) of glucose tolerance test” value was “more effective than PATAD to reduce the AUC”. Further, the “glucose intolerance (ipGTT)” value in assay [1] was “more active than PATAD peptide”. The “PKC activity, dose response” value with PKC (30 minutes incubation, PATAS quantities in μg per well, n=5) is listed as “increasing PKC activity with increasing ADPIF/PATAS quantity”. Besides, in the assay with Bbs10-/- mice, the “glucose tolerance (ipGTT)” value is recorded as “improved glucose tolerance”. Further, the “ipGTT area under the curve (AUC)” value in the assay on Bbs10-/- mice (before injection ~30000, n=4) is about 16000 mg·min/dL. For the same substance, the “glucose uptake (glucose absorption)” value in assay [2] was “as effective as Insulin”. For the same substance, the “glycated albumin levels in plasma” value is “significant drop in glycated albumin” in the assay on glycated albumin and “significant drop in glycated albumin levels” with glycated albumin (listed as ADPIF).
